Experiments:
Assay type in all cases: in vivo, human
[1] = system: Healthy subjects, ages 13-18; assay: ADHD Rating Scale (ARS); set-up: scale not given here
Text: Study participants were screened by telephone prior to study enrollment. Healthy subjects, ages 13-18, with no significant medical conditions and no history of co-morbid psychiatric disorder, current Axis I or II diagnosis, or previous participation in a pharmacotherapeutic trial, were selected. Use of any psychotropic medication or any previous head injury resulting in loss of consciousness for 5 or more minutes were used as exclusion criteria. While no participant met criteria for a neuropsychiatric disorder at enrollment, clinical assessments were still completed throughout the study to evaluate changes in mood state. In addition, self-reports of sleep habits, lifestyle, and exercise routines were also administered at baseline as well as at each study visit to assess changes in health habits during study participation. Following the completion of Visit 1 assessment, participants were given their 28-day supply of citicoline (250 mg or 500 mg) or placebo, which was randomly assigned. They were instructed to take one capsule a day every day for the next 28 days. Visit 2 occurred fourteen days after Visit 1. At Visit 2, the remaining study pills were counted and participant dosage calendars were checked to ensure compliance with the protocol. Additional neuropsychological measures and clinical assessments were administered during this visit. Participants returned for Visit 3 fourteen days later, on the 28th day of their study participation. The pill bottle and the dosage calendar were collected from each participant. Urine and blood were again obtained. Participants also participated in similar clinical and neuropsychological testing and clinical measures that were given during visit 1. The ARS is a questionnaire assessing the frequency of DSM-IV-TR symptoms of ADHD in children including inattention, impulsivity, and hyperactivity. The scale was administered at each of the three visits to assess presence or absence of ADHD symptoms.

[2] = system: Healthy subjects, ages 13-18; assay: Pittsburgh Sleep Quality Index (PSQI); conditions: for PSQI Score, Mean: V3-V1
Text: Study participants were screened by telephone prior to study enrollment. Healthy subjects, ages 13-18, with no significant medical conditions and no history of co-morbid psychiatric disorder, current Axis I or II diagnosis, or previous participation in a pharmacotherapeutic trial, were selected. Use of any psychotropic medication or any previous head injury resulting in loss of consciousness for 5 or more minutes were used as exclusion criteria. While no participant met criteria for a neuropsychiatric disorder at enrollment, clinical assessments were still completed throughout the study to evaluate changes in mood state. In addition, self-reports of sleep habits, lifestyle, and exercise routines were also administered at baseline as well as at each study visit to assess changes in health habits during study participation. Following the completion of Visit 1 assessment, participants were given their 28-day supply of citicoline (250 mg or 500 mg) or placebo, which was randomly assigned. They were instructed to take one capsule a day every day for the next 28 days. Visit 2 occurred fourteen days after Visit 1. At Visit 2, the remaining study pills were counted and participant dosage calendars were checked to ensure compliance with the protocol. Additional neuropsychological measures and clinical assessments were administered during this visit. Participants returned for Visit 3 fourteen days later, on the 28th day of their study participation. The pill bottle and the dosage calendar were collected from each participant. Urine and blood were again obtained. Participants also participated in similar clinical and neuropsychological testing and clinical measures that were given during visit 1. The PSQI is a self-report sleep questionnaire designed to assess usual sleep habits during the past month. The PSQI was administered at each of the three study visits to assess alterations to sleep quality during the 28 days of study participation.

[3] = system: Healthy subjects, ages 13-18; assay: Rey-Osterreith Complex Figure Test (ROCFT) / Modified Taylor Complex Figure; set-up: key: raw score: elements correctly recalled, accuracy and placement; conditions: for ROCFT Copy Raw Score V1, Mean / ROCFT Delayed Raw Score V1, Mean / ROCFT Difference Raw Score V1, Mean / ROCFT Immediate Raw Score V1, Mean: Visit 1; for ROCFT V3-V1 Copy Raw Score, Mean / ROCFT V3-V1 Delayed Raw Score, Mean / ROCFT V3-V1 Difference Raw Score, Mean / ROCFT V3-V1 Immediate Raw Score, Mean: Visit difference score
Text: Study participants were screened by telephone prior to study enrollment. Healthy subjects, ages 13-18, with no significant medical conditions and no history of co-morbid psychiatric disorder, current Axis I or II diagnosis, or previous participation in a pharmacotherapeutic trial, were selected. Use of any psychotropic medication or any previous head injury resulting in loss of consciousness for 5 or more minutes were used as exclusion criteria. While no participant met criteria for a neuropsychiatric disorder at enrollment, clinical assessments were still completed throughout the study to evaluate changes in mood state. In addition, self-reports of sleep habits, lifestyle, and exercise routines were also administered at baseline as well as at each study visit to assess changes in health habits during study participation. Following the completion of Visit 1 assessment, participants were given their 28-day supply of citicoline (250 mg or 500 mg) or placebo, which was randomly assigned. They were instructed to take one capsule a day every day for the next 28 days. Visit 2 occurred fourteen days after Visit 1. At Visit 2, the remaining study pills were counted and participant dosage calendars were checked to ensure compliance with the protocol. Additional neuropsychological measures and clinical assessments were administered during this visit. Participants returned for Visit 3 fourteen days later, on the 28th day of their study participation. The pill bottle and the dosage calendar were collected from each participant. Urine and blood were again obtained. Participants also participated in similar clinical and neuropsychological testing and clinical measures that were given during visit 1. The ROCFT is an assessment of visuo-organizational ability, visual attention, and visual memory. The participant is asked to copy a complex 2-dimensional figure with the stimulus or complex figure in front of them (Copy Trial), immediately after the stimulus has been removed (Short Delay Trial), and after 30 minutes without the stimulus present (Long Delay Trial). The figure produced at each trial is then evaluated for the strategy used in reproducing the figure, constructional accuracy, and placement of elements within the figure. The Copy, Short Delay, and Long Delay trials are each scored on the number of elements that have been correctly recalled and the accuracy and placement of each element. The Difference Score between immediate and delayed performance scores is a measure of temporary decay for visuospatial memory. This test was administered on both the first and the third visits. The Modified Taylor Complex Figure (MTCF) is an alternate form of the ROCFT to assess visuo-organizational ability, visual attention, and visual memory. The same procedure was used to administer the MTCF. The MTCF was administered at the second visit instead of the ROCFT to minimize the effect of repeat testing on copy and retention of the figure across visits.

For `C[N+](C)(C)CCOP(=O)(O)OP(=O)([O-])OC[C@H]1O[C@@H](n2ccc(N)nc2=O)[C@H](O)[C@@H]1O` [citicoline, Cytidine 5′-diphosphocholine], the “ARS Impulsivity, Mean” value ([1]; 250 mg/day, V1 (baseline)) was 1.44, the “ARS Inattention, Mean” value ([1]; 250 mg/day, V1 (baseline)) was 1.30 and the “ARS Impulsivity, Mean” value ([1]; 250 mg/day, V3 (day 28)) was 0.85. The “ARS Inattention, Mean” value ([1]; 250 mg/day, V3 (day 28)) was 1.56, the “ARS Impulsivity, Mean” value ([1]; 250 mg/day, V3-V1) was -0.59 and the “ARS Inattention, Mean” value ([1]; 250 mg/day, V3-V1) was 0.26. For the same molecule, the “ARS Impulsivity, Mean” value ([1]; 500 mg/day, V1 (baseline)) was 0.88, the “ARS Inattention, Mean” value ([1]; 500 mg/day, V1 (baseline)) was 0.50 and the “ARS Impulsivity, Mean” value ([1]; 500 mg/day, V3 (day 28)) was 0.38. The “ARS Inattention, Mean” value ([1]; 500 mg/day, V3 (day 28)) was 0.38, the “ARS Inattention, Mean” value ([1]; 500 mg/day, V3-V1) was -0.13 and the “PSQI, Mean” value ([2]; 250 mg/day, V1 (baseline)) was 3.41. For the same molecule, the “PSQI, Mean” value ([2]; 250 mg/day, V3 (day 28)) was 2.59, the “PSQI Score, Mean” value ([2]; 250 mg/day) was -0.81 and the “PSQI, Mean” value ([2]; 500 mg/day, V1 (baseline)) was 3.38. For the same molecule, the “PSQI, Mean” value ([2]; 500 mg/day, V3 (day 28)) was 2.46, the “PSQI Score, Mean” value ([2]; 500 mg/day) was -0.92 and the “ROCFT Copy Raw Score V1, Mean” value ([3]; 250 mg/day group) was 29.72. The “ROCFT Delayed Raw Score V1, Mean” value ([3]; 250 mg/day group) was 21.63, the “ROCFT Difference Raw Score V1, Mean” value ([3]; 250 mg/day group) was -0.24 and the “ROCFT Immediate Raw Score V1, Mean” value ([3]; 250 mg/day group) was 21.39. For the same molecule, the “ROCFT V3-V1 Copy Raw Score, Mean” value ([3]; 250 mg/day group) was 0.28, the “ROCFT V3-V1 Delayed Raw Score, Mean” value ([3]; 250 mg/day group) was 3.80 and the “ROCFT V3-V1 Difference Raw Score, Mean” value ([3]; 250 mg/day group) was 1.35. For the same molecule, the “ROCFT V3-V1 Immediate Raw Score, Mean” value ([3]; 250 mg/day group) was 5.15, the “ROCFT Copy Raw Score V1, Mean” value ([3]; 500 mg/day group) was 29.13 and the “ROCFT Delayed Raw Score V1, Mean” value ([3]; 500 mg/day group) was 19.00. The “ROCFT Difference Raw Score V1, Mean” value ([3]; 500 mg/day group) was 0.44, the “ROCFT Immediate Raw Score V1, Mean” value ([3]; 500 mg/day group) was 19.48 and the “ROCFT V3-V1 Copy Raw Score, Mean” value ([3]; 500 mg/day group) was 0.27. The “ROCFT V3-V1 Delayed Raw Score, Mean” value ([3]; 500 mg/day group) was 5.31, the “ROCFT V3-V1 Difference Raw Score, Mean” value ([3]; 500 mg/day group) was 0.13 and the “ROCFT V3-V1 Immediate Raw Score, Mean” value ([3]; 500 mg/day group) was 5.40.
